From article PMC6467533 (Chembiochem : a European journal of chemical biology, 2018)

Biological target: Mtb TPP (Mycobacterium tuberculosis, UniProt P9WFZ5)
Format: biochemical

Chain of Mtb TPP (P9WFZ5 whole entry, looked up): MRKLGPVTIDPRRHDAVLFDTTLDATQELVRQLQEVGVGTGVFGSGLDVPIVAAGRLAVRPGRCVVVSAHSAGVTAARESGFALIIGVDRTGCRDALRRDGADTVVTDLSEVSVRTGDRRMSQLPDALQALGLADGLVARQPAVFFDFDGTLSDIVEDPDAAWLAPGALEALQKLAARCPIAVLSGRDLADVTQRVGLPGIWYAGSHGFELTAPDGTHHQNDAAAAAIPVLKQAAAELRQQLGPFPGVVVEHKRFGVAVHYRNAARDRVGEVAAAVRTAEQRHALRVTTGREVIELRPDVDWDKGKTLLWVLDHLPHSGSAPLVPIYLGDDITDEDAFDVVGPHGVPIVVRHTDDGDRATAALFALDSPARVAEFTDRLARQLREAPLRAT

## O=P(O)(O)C[C@H]1O[C@H](O[C@H]2O[C@H](CO)[C@@H](O)[C@H](O)[C@H]2O)[C@H](O)[C@@H](O)[C@@H]1O [TMP, 6-Deoxy-6-(phosphonic acid)-α,α’-trehalose]
  IC50 fold worse than the determined T6P KM, Mtb TPP: 2.8 fold
